Data taken from patent publication US7951829B2, “Benzimidazole modulators of VR1” (Janssen Pharmaceutica NV, priority 2006, dated 2011).

Molecular target: T1, hVR1 (Homo sapiens, UniProt Q8NER1)
T1 construct: expressed in transfected cells; host or cells: HEK293
Assay: Human VR1 (hVR1) Functional Assay (FLIPR intracellular calcium, capsaicin challenge)
Type: cell-based
Conditions: capsaicin 0.030 μM, HEK293 cells expressing hVR1; for inhibition at 1 µM: test concentration 1 μM

T1 sequence (Q8NER1 whole entry): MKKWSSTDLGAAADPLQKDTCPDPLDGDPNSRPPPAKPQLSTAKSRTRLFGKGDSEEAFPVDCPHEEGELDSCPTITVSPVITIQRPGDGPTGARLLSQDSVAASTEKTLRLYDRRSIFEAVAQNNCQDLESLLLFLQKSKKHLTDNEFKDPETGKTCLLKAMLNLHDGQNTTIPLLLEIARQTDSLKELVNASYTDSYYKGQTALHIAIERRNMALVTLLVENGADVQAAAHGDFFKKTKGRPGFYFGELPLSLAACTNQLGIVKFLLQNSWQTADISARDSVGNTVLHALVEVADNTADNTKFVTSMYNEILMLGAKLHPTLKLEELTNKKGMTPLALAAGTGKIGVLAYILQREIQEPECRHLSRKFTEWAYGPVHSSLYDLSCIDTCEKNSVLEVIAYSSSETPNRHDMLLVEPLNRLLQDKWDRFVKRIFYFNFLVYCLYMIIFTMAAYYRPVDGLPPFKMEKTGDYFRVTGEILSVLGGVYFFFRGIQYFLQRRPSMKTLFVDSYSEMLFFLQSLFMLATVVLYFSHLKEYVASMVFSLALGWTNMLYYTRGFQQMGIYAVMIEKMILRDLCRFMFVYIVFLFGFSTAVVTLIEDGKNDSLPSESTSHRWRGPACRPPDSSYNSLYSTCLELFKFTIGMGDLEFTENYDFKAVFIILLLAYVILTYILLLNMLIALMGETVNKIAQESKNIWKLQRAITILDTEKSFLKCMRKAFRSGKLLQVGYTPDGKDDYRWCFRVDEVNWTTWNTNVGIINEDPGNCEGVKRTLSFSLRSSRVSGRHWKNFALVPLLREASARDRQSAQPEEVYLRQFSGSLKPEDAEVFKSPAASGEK

CCS(=O)(=O)Nc1ccccc1-c1ccc2[nH]c(/C=C/c3ccc(C(F)(F)F)cc3)nc2c1 [Cpd 461, (E)-ethanesulfonic acid (2-{2-[2-(4-trifluoromethyl-phenyl)-vinyl]-1H-benzimidazol-5-yl}-phenyl)-amide]
IC50: 0.005 µM
inhibition at 1 µM: 99%

NS(=O)(=O)c1ccccc1-c1ccc2[nH]c(CCc3cc(C(F)(F)F)ccc3C(F)(F)F)nc2c1 [Cpd 388, 2-{2-[2-(2,5-bis-trifluoromethyl-phenyl)-ethyl]-1H-benzimidazol-5-yl}-benzenesulfonamide]
IC50: 0.054 µM
inhibition at 1 µM: 99%

CC(C)c1ccc(CCc2nc3cc(-c4ccccc4S(N)(=O)=O)ccc3[nH]2)cc1 [Cpd 442, 2-{2-[2-(4-isopropyl-phenyl)-ethyl]-1H-benzimidazol-5-yl}-benzenesulfonamide]
IC50: 0.004 µM
inhibition at 1 µM: 96%

NS(=O)(=O)c1ccccc1-c1ccc2[nH]c(/C=C/c3ccc(F)c(Cl)c3)nc2c1 [Cpd 432, (E)-2-{2-[2-(3-chloro-4-fluoro-phenyl)-vinyl]-1H-benzimidazol-5-yl}-benzenesulfonamide]
IC50: 0.015 µM
inhibition at 1 µM: 98%

CS(=O)(=O)Nc1ccccc1-c1ccc2[nH]c(/C=C/c3cc(F)cc(C(F)(F)F)c3)nc2c1 [Cpd 411, (E)-N-(2-{2-[2-(3-fluoro-5-trifluoromethyl-phenyl)-vinyl]-1H-benzimidazol-5-yl}-phenyl)-methanesulfonamide]
IC50: 0.35 µM
inhibition at 1 µM: 85%

NS(=O)(=O)c1ccccc1-c1ccc2[nH]c(/C=C/c3ccc(C(F)(F)F)c(F)c3)nc2c1 [Cpd 423, (E)-2-{2-[2-(3-fluoro-4-trifluoromethyl-phenyl)-vinyl]-1H-benzimidazol-5-yl}-benzenesulfonamide]
IC50: 0.011 µM
inhibition at 1 µM: 99%

NS(=O)(=O)c1ccccc1-c1ccc2[nH]c(C3CC3c3ccc(C(F)(F)F)cc3)nc2c1 (stereo not drawn) [Cpd 190, 2-{2-[2-(4-trifluoromethyl-phenyl)-cyclopropyl]-1H-benzimidazol-5-yl}-benzenesulfonamide]
IC50: 0.038 µM
inhibition at 1 µM: 94%

CS(=O)(=O)Nc1ccccc1-c1ccc2[nH]c(/C=C/c3ccc(F)c(Br)c3)nc2c1 [Cpd 409, (E)-N-(2-{2-[2-(3-bromo-4-fluoro-phenyl)-vinyl]-1H-benzimidazol-5-yl}-phenyl)-methanesulfonamide]
inhibition at 1 µM: 43%

CNCc1ccccc1-c1ccc2[nH]c(/C=C/c3ccc(C(F)(F)F)cc3)nc2c1 [Cpd 485, (E)-methyl-(2-{2-[2-(4-trifluoromethyl-phenyl)-vinyl]-1H-benzimidazol-5-yl}-benzyl)-amine]
IC50: > 0.5 µM

CS(=O)(=O)Nc1ccccc1-c1ccc2[nH]c(/C=C/c3cccc(C(F)(F)F)c3)nc2c1 [Cpd 113, (E)-N-(2-{2-[2-(3-trifluoromethyl-phenyl)-vinyl]-1H-benzimidazol-5-yl}-phenyl)-methanesulfonamide]
inhibition at 1 µM: 48%

NS(=O)(=O)c1ccccc1-c1ccc2[nH]c(/C=C/c3ccc(Br)cc3)nc2c1 [Cpd 363, (E)-2-{2-[2-(4-bromo-phenyl)-vinyl]-1H-benzimidazol-5-yl}-benzenesulfonamide]
IC50: 0.012 µM
inhibition at 1 µM: 98%

CNS(=O)(=O)c1ccccc1-c1ccc2[nH]c(/C=C/c3cc(F)cc(C(F)(F)F)c3)nc2c1 [Cpd 322, (E)-2-{2-[2-(3-fluoro-5-trifluoromethyl-phenyl)-vinyl]-1H-benzimidazol-5-yl}-N-methyl-benzenesulfonamide]
IC50: 0.014 µM
inhibition at 1 µM: 101%

CNS(=O)(=O)c1ccccc1-c1ccc2[nH]c(/C=C/c3ccc(F)cc3C(F)(F)F)nc2c1 [Cpd 330, (E)-2-{2-[2-(4-fluoro-2-trifluoromethyl-phenyl)-vinyl]-1H-benzimidazol-5-yl}-N-methyl-benzenesulfonamide]
IC50: 0.131 µM
inhibition at 1 µM: 85%

CNS(=O)(=O)c1ccccc1-c1ccc2[nH]c(/C=C/c3ccc(F)c(Br)c3)nc2c1 [Cpd 317, (E)-2-{2-[2-(3-bromo-4-fluoro-phenyl)-vinyl]-1H-benzimidazol-5-yl}-N-methyl-benzenesulfonamide]
IC50: 0.011 µM
inhibition at 1 µM: 101%

CS(=O)(=O)Nc1ccccc1-c1ccc2[nH]c(/C=C/c3ccc(-c4ccccc4)cc3)nc2c1 [Cpd 475, (E)-N-{2-[2-(2-biphenyl-4-yl-vinyl)-1H-benzimidazol-5-yl]-phenyl}-methanesulfonamide]
IC50: 0.077 µM

CC(C)(C)c1ccc(CCc2nc3cc(-c4ccc(O)cc4)ccc3[nH]2)cc1 [Cpd 34, 4-{2-[2-(4-tert-butyl-phenyl)-ethyl]-1H-benzimidazol-5-yl}-phenol]
inhibition at 5 µM (test concentration 5 μM (footnote 1)): 75%

CC(=O)c1ccccc1-c1cc2nc(/C=C/c3ccc(C(F)(F)F)cc3)[nH]c2cc1C(F)(F)F [Cpd 57, (E)-1-(2-{6-trifluoromethyl-2-[2-(4-trifluoromethyl-phenyl)-vinyl]-1H-benzimidazol-5-yl}-phenyl)-ethanone]
inhibition at 1 µM: 15%

NS(=O)(=O)c1ccccc1-c1ccc2[nH]c(/C=C/c3ccc(F)cc3C(F)(F)F)nc2c1 [Cpd 367, (E)-2-{2-[2-(4-fluoro-2-trifluoromethyl-phenyl)-vinyl]-1H-benzimidazol-5-yl}-benzenesulfonamide]
IC50: 0.053 µM
inhibition at 1 µM: 98%

CC(C)(O)c1ccccc1-c1ccc2[nH]c(/C=C/c3ccc(S(C)(=O)=O)cc3)nc2c1 [Cpd 84, (E)-2-(2-{2-[2-(4-methanesulfonyl-phenyl)-vinyl]-1H-benzimidazol-5-yl}-phenyl)-propan-2-ol]
IC50: 0.04 µM
inhibition at 1 µM: 100%

CNS(=O)(=O)c1ccccc1-c1ccc2[nH]c(/C=C/c3c(F)cccc3Cl)nc2c1 [Cpd 336, (E)-2-{2-[2-(2-chloro-6-fluoro-phenyl)-vinyl]-1H-benzimidazol-5-yl}-N-methyl-benzenesulfonamide]
IC50: 0.24 µM
inhibition at 1 µM: 89%

O=Cc1ccccc1-c1ccc2[nH]c(/C=C/c3ccc(C(F)(F)F)cc3)nc2c1 [Cpd 484, (E)-2-{2-[2-(4-trifluoromethyl-phenyl)-vinyl]-1H-benzimidazol-5-yl}-benzaldehyde]
IC50: > 0.5 µM

CNS(=O)(=O)c1ccccc1-c1ccc2[nH]c(/C=C/c3ccc(S(=O)(=O)C(F)(F)F)cc3)nc2c1 [Cpd 342, (E)-N-methyl-2-{2-[2-(4-trifluoromethanesulfonyl-phenyl)-vinyl]-1H-benzimidazol-5-yl}-benzenesulfonamide]
IC50: 0.024 µM
inhibition at 1 µM: 98%

CNS(=O)(=O)c1ccccc1-c1ccc2[nH]c(/C=C/c3ccc(F)c(C(F)(F)F)c3)nc2c1 [Cpd 331, (E)-2-{2-[2-(4-fluoro-3-trifluoromethyl-phenyl)-vinyl]-1H-benzimidazol-5-yl}-N-methyl-benzenesulfonamide]
IC50: 0.043 µM
inhibition at 1 µM: 97%

O=S(=O)(c1ccc(/C=C/c2nc3cc(-c4ccccc4C(F)(F)F)ccc3[nH]2)cc1)C(F)(F)F [Cpd 481, (E)-2-[2-(4-trifluoromethanesulfonyl-phenyl)-vinyl]-5-(2-trifluoromethyl-phenyl)-1H-benzimidazole]
inhibition at 1 µM: 42%

CS(=O)(=O)Nc1ccccc1-c1ccc2[nH]c(/C=C/c3ccc(S(C)(=O)=O)cc3)nc2c1 [Cpd 83, (E)-N-(2-{2-[2-(4-methanesulfonyl-phenyl)-vinyl]-1H-benzimidazol-5-yl}-phenyl)-methanesulfonamide]
IC50: > 0.5 µM

CNS(=O)(=O)c1ccccc1-c1ccc2[nH]c(/C=C/c3ccc(C(F)(F)F)cc3F)nc2c1 [Cpd 320, (E)-2-{2-[2-(2-fluoro-4-trifluoromethyl-phenyl)-vinyl]-1H-benzimidazol-5-yl}-N-methyl-benzenesulfonamide]
IC50: 0.013 µM
inhibition at 1 µM: 100%

O=S(=O)(c1ccc(/C=C/c2nc3cc(-c4ccccc4CO)ccc3[nH]2)cc1)C(F)(F)F [Cpd 42, (E)-(2-{2-[2-(4-trifluoromethanesulfonyl-phenyl)-vinyl]-1H-benzimidazol-5-yl}-phenyl)-methanol]
IC50: 0.022 µM
inhibition at 1 µM: 100%

CNS(=O)(=O)c1ccccc1-c1ccc2[nH]c(/C=C/c3ccc(S(C)(=O)=O)cc3)nc2c1 [Cpd 351, (E)-2-{2-[2-(4-methanesulfonyl-phenyl)-vinyl]-1H-benzimidazol-5-yl}-N-methyl-benzenesulfonamide]
IC50: > 0.5 µM

NS(=O)(=O)c1ccccc1-c1ccc2[nH]c(/C=C/c3cc(F)ccc3F)nc2c1 [Cpd 360, (E)-2-{2-[2-(2,5-difluoro-phenyl)-vinyl]-1H-benzimidazol-5-yl}-benzenesulfonamide]
IC50: 0.046 µM
inhibition at 1 µM: 98%

NS(=O)(=O)c1ccccc1-c1ccc2[nH]c(/C=C/c3cc(C(F)(F)F)ccc3C(F)(F)F)nc2c1 [Cpd 374, (E)-2-{2-[2-(2,5-bis-trifluoromethyl-phenyl)-vinyl]-1H-benzimidazol-5-yl}-benzenesulfonamide]
IC50: 0.034 µM
inhibition at 1 µM: 99%

CNS(=O)(=O)c1ccccc1-c1ccc2[nH]c(/C=C/c3ccc(F)c(Cl)c3)nc2c1 [Cpd 321, (E)-2-{2-[2-(3-chloro-4-fluoro-phenyl)-vinyl]-1H-benzimidazol-5-yl}-N-methyl-benzenesulfonamide]
IC50: 0.018 µM
inhibition at 1 µM: 100%

NS(=O)(=O)c1ccccc1-c1ccc2[nH]c(CCc3ccc(Cl)cc3)nc2c1 [Cpd 139, 2-{2-[2-(4-chloro-phenyl)-ethyl]-1H-benzimidazol-5-yl}-benzenesulfonamide]
IC50: 0.031 µM
inhibition at 1 µM: 98%

CC(C)(C)c1ccc(/C=C/c2nc3cc(-c4ccc(C(N)=O)cc4)ccc3[nH]2)cc1 [Cpd 7, (E)-4-{2-[2-(4-tert-butyl-phenyl)-vinyl]-1H-benzimidazol-5-yl}-benzamide]
inhibition at 1 µM: 10%

NS(=O)(=O)c1ccccc1-c1ccc2[nH]c(CCc3ccccc3)nc2c1 [Cpd 397, 2-(2-phenethyl-1H-benzimidazol-5-yl)-benzenesulfonamide]
IC50: 0.023 µM
inhibition at 1 µM: 99%
